Results published in publication PMC9370150, “UHPLC Enantiomer Resolution for the ɑ/β-Adrenoceptor Antagonist R/S-Carvedilol and Its Major Active Metabolites on Chiralpak IB N-5” (Molecules, 2022).
Like-named read-outs stand apart in the source and are kept apart here.

Experiments:
[1] = Enantiomer plasma concentrations in cardiovascular patients after oral 25 mg rac-CAR (UHPLC-UV on Chiralpak IB N-5); conditions: for concentration at 1 h / concentration at 2 h / concentration at 4 h / concentration at 9 h / concentration at 12 h / concentration at 0.5 h: human, plasma, po, 25 mg
Experimental: The developed method was applied to single plasma samples obtained from different patients after an oral dose administration of 25 mg rac-CAR under non-standardized conditions. Patients’ plasma was collected at different time intervals after drug administration and CAR and its metabolites were extracted according to the method in Section 4.7 after spiking with IS.
Blood samples obtained from patients were also collected in EDTA-containing tubes. Blood was kept cool and then centrifuged at 2000 g for 15 min. Following plasma separation, it was immediately transferred into clean polypropylene tubes. The samples were always kept at 2–8 °C while handling.
After collection, plasma was obtained and the samples stored frozen until analysis.

β-adrenoreceptor = conditions: cited from earlier work
α1-adrenoreceptor = conditions: cited from earlier work
[2] = design: method as in PMID 1980583; conditions: therapeutic dose; cited from earlier work
[3] = patient 3, sampling time 2.0 hr, oral 25 mg racemic CAR
[4] = patient 4, sampling time 4.0 hr, oral 25 mg racemic CAR
[5] = patient 5, sampling time 9.0 hr, oral 25 mg racemic CAR
[6] = patient 6, sampling time 12.0 hr, oral 25 mg racemic CAR
[7] = single enantiomers, read-out: Kd, β-adrenoreceptor antagonistic property
[8] = single enantiomers, read-out: Kd, α1-antagonistic activity

Structure (SMILES) | Plasma Concentration [1, 3] | Plasma Concentration [1, 4] | Plasma Concentration [1, 5] | Plasma Concentration [1, 6] | concentration at 1 h [1] | concentration at 2 h [1] | concentration at 4 h [1] | concentration at 9 h [1] | concentration at 12 h [1] | concentration at 0.5 h [1] | also measured
COc1ccc(O)cc1OCCNC[C@@H](O)COc1cccc2[nH]c3ccccc3c12 [R-5′OHC] | 8.20 ng/mL | 9.47 ng/mL | 6.09 ng/mL | 3.78 ng/mL | – | – | – | – | – | – | –
Oc1ccccc1OCCNC[C@H](O)COc1cccc2[nH]c3ccccc3c12 [S-DMC] | – | – | – | – | 3.27 ng/mL | 9.92 ng/mL | 8.52 ng/mL | 5.02 ng/mL | 2.73 ng/mL | – | –
Oc1ccccc1OCCNC[C@@H](O)COc1cccc2[nH]c3ccccc3c12 [R-DMC] | 6.06 ng/mL | 4.93 ng/mL | 2.82 ng/mL | 1.52 ng/mL | – | – | – | – | – | – | Plasma Concentration ([1]; patient 2, sampling time 1.0 hr, oral 25 mg racemic CAR): 2.40 ng/mL
COc1ccc(O)cc1OCCNC[C@H](O)COc1cccc2[nH]c3ccccc3c12 [S-5′OHC] | – | – | – | – | – | 11.5 ng/mL | 14.1 ng/mL | 8.09 ng/mL | 5.28 ng/mL | – | –
COc1ccccc1OCCNC[C@@H](O)COc1cccc2[nH]c3ccccc3c12 [R-CAR] | – | – | – | – | 48.4 ng/mL | – | – | – | – | 20.7 ng/mL | β-blocking activity relative to the racemate (β-adrenoreceptor; share of the racemate's activity): approximately 1%; Kd (β-adrenoreceptor; [7]): ~0.045 µM; Kd (α1-adrenoreceptor; [8]): 0.016 µM
COc1cc(O)ccc1OCCNC[C@H](O)COc1cccc2[nH]c3ccccc3c12 [S-4′OHC] | – | – | – | – | – | 13.7 ng/mL | 16.1 ng/mL | 8.18 ng/mL | 5.29 ng/mL | – | –
COc1cc(O)ccc1OCCNC[C@@H](O)COc1cccc2[nH]c3ccccc3c12 [R-4′OHC] | 4.51 ng/mL | 4.98 ng/mL | 3.54 ng/mL | 1.96 ng/mL | – | – | – | – | – | – | –
COc1ccccc1OCCNC[C@H](O)COc1cccc2[nH]c3ccccc3c12 [S-CAR, (-)-1-(9H-carbazol-4-yloxy)-3-[2-(2-methoxyphenoxy)ethylamino] propan-2-ol] | – | – | – | – | 50 ng/mL | – | – | – | – | 20.3 ng/mL | β-adrenoreceptor potency relative to the racemic mixture (β-adrenoreceptor; fold more potent than racemate): approximately two-fold; Kd (β-adrenoreceptor; [7]): 0.0004 µM; Kd (α1-adrenoreceptor; [8]): 0.014 µM
COc1ccccc1OCCNCC(O)COc1cccc2[nH]c3ccccc3c12 (centres unmarked) [CAR, Carvedilol] | – | – | – | – | 98.4 ng/mL | – | – | – | – | 41 ng/mL | excreted unchanged into urine [2]: 2%; fraction of dose metabolized [2]: ~98%; β-adrenoceptor-antagonism eudismic ratio (β-adrenoreceptor; parent CAR): approximately 100; Kd (β-adrenoreceptor; racemate, read-out: Kd, nonselective β-adrenoreceptor antagonist): 0.011 µM; α1-adrenoceptor-antagonism eudismic ratio (α1-adrenoreceptor; parent CAR): approximately 1; Kd (α1-adrenoreceptor; racemate, read-out: apparent dissociation constant (Kd), α1-adrenoreceptor antagonist): 0.0009 µM; plasma S/R ratios of CAR enantiomers ([1]; analyzed patient samples after 25 mg CAR racemate): ~1; Plasma concentration S/R ([1]; patient 1, sampling time 0.5 hr, oral 25 mg racemic CAR): 0.98; sum of the two enantiomers in plasma ([1]; patients investigated, 25 mg CAR racemate): ≤ 100 ng/mL
